Reference: patent publication US9718835B2 (China Medical University Hospital, priority 2013, dated 2017)

Legend:
[1] = test system: A549 (Lung cancer); assay: cells; type: cell-based, human; settings: Table 6; read-out: In vitro cytotoxicity A549 (Lung cancer)
[2] = biological target: T1, Topo I (Homo sapiens, UniProt P11387); assay: Western blot analysis of Topo I expression; type: cell-based; set-up: endogenous in cells; host or cells: A-549; settings: after 8 h treatment
T1 sequence (P11387 1-765): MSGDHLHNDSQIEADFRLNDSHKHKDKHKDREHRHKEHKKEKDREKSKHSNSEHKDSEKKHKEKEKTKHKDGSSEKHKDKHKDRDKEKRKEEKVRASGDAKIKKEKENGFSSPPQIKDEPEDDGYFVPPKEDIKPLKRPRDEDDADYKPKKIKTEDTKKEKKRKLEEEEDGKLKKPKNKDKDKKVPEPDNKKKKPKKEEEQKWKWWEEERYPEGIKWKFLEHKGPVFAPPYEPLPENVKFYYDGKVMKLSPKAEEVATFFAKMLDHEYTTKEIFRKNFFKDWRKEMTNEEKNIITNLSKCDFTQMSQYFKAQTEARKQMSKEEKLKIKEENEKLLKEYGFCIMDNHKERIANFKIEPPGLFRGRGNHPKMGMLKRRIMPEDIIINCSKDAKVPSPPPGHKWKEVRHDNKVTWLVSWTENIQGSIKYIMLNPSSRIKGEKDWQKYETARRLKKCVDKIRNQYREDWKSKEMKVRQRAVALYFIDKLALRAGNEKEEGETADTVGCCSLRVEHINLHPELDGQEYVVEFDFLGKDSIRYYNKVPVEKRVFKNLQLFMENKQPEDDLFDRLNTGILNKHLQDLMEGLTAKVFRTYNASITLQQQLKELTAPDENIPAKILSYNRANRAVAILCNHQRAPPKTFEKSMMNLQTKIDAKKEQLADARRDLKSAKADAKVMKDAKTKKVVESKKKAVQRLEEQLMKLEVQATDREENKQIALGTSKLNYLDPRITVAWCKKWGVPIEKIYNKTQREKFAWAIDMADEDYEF
From the text: First, we determined the effect of 9a on cell cycle distribution using flow cytometry analysis. […] Because it has been shown that 1-Topo I-DNA covalent complexes enhance the transcription-dependent degradation of Topo I via a 26S proteasome pathway,^32 the effects of 9a on the expression levels of Topo I and Topo II were investigated. […] Compound 9a acts directly on Topo I and results in the accumulation of covalent Topo I-DNA complexes followed by proteasomal Topo I degradation, which is the same effect as 1 and contributes to 9a's cytotoxicity.
Cells were harvested in PBS containing proteinase inhibitors and phosphatase inhibitors, and sonicated. Whole cell lysates were separated by SDS-PAGE and transferred to Immobilon P membrane (EMD Millipore). The membrane was incubated with primary antibody followed by labeling with horseradish peroxidase (HRP)-conjugated secondary antibody (EMD Millipore). Chemilluminence substrate kit (EMD Millipore) was used for detection of membrane-bound HRP, and visualized by the Luminsence image analyzer, LAS4000 (Fuji Photo Film Co., Japan).
Antibodies to caspase-3, caspase-8, caspase-9, PARP, phospho-ATM (Ser1981), ATM, phospho-ATR (Ser428), phospho-Chk1 (Ser345), phospho-Chk2 (Thr68), Chk2, phospho-H2AX (Ser139), and phospho-p53 (Ser15) were purchased from Cell Signaling Technology. […]

[3] = biological target: T1, Topo I; assay: Topo I activity assay, nuclear extracts of treated A-549 cells, supercoiled DNA; type: cell-based; set-up: Nuclear extracts from 9a-treated A-549 cells were incubated with supercoiled DNA (for Topo I); endogenous in cells; host or cells: A-549
Experimental: First, we determined the effect of 9a on cell cycle distribution using flow cytometry analysis. […] Because it has been shown that 1-Topo I-DNA covalent complexes enhance the transcription-dependent degradation of Topo I via a 26S proteasome pathway,^32 the effects of 9a on the expression levels of Topo I and Topo II were investigated.
Topo I activity test was performed using an assay kit (TopoGEN) according to the manufacturer's instructions. Nuclear extracts from 9a-treated A-549 cells were incubated with supercoiled DNA (for Topo I) or catenated kDNA (for Topo II) for 30 min at 37° C. Reaction mixture was separated by is 1% agarose gel in 1×TAE buffer. The gel was stained with ethidium bromide and photographed using Gel Doc XR (Bio-Rad).

[4] = test system: KBvin (vincristine-resistant KB subline); assay: Sulforhodamine B cytotoxicity assay, KBvin; type: cell-based, human; settings: Table 1; 72 h; average ± SD; read-out: IC50 KBvin
From the text: The human tumor cell lines used in this manuscript were A-549 (lung carcinoma), MDA-MB-231 (triple-negative breast cancer), DU-145 (hormone-insensitive prostate cancer), KB (originally isolated from epidermoid carcinoma of the nasopharynx), KBvin (vincristine-resistant KB subline), and HCT116 (colorectal adenocarcinoma). These cell lines were obtained from the Lineberger Comprehensive Cancer Center (UNC-CH) or from ATCC (Manassas, Va.), except KBvin, which was a generous gift of Professor Y.-C. Cheng (Yale University). All cell lines were maintained and assayed in RPMI-1640 medium containing 2 mM L-glutamine and 25 mM HEPES (HyClone), supplemented with 10% heat-inactivated fetal bovine serum (HyClone), 100 μg/mL streptomycin, 100 IU/mL penicillin, and 0.25 μg/mL amphotericin B (Cellgro) in a humidified atmosphere containing 5% CO2 in air. […] The 4-6×10^3 cells/well were cultured for 72 h with various concentrations of test compounds in 96-well plate at 37° C. […] Each assay was performed in triplicate with duplicated samples.

[5] = test system: A-549 cells; assay: Apoptosis assessment, Annexin V-FITC/propidium iodide double staining; type: cell-based, human
Experimental: Initially, we investigated morphological cellular changes. […] PARP, a hallmark of apoptosis, was also activated by 9a.
Apoptosis was detected by Annexin V-FITC/propidium iodide double staining kit (BD Biosciences). A-549 cells were treated with 9a for 24 h or 48 h. Cells were harvested by trypsinization and washed with ice-cold PBS. Cells were labeled with annexin V-FITC and propidium iodide for 15 min at room temperature in the dark. Labeled cells were analyzed by FACSCalibur flow cytometer (Becton Dickinson).

Structure (SMILES): CC[C@@]1(OC(=O)CNC(Cc2ccc(OC)cc2)=NS(=O)(=O)c2ccc(C)cc2)C(=O)OCc2c1cc1n(c2=O)Cc2cc3ccccc3nc2-1 [Compound 9a]
- IC50 [1]: 80.3 ± 6.13 nM
- protein levels of Topo I [2]: significantly inhibited protein levels of Topo I
- Topo I-mediated relaxation of supercoiled DNA [3]: inhibited the relaxation of supercoiled DNA
- IC50 [4]: 26 nM
- annexin V positive cell population ([5]; A-549, 24 h, vehicle […]): 3.7%
- annexin V positive cell population ([5]; A-549, 48 h, vehicle 2.0%): 34.1%
